Test results as given in patent publication US5599548A, “Skin care compositions containing fatty acid amides and retinol or retinyl ester” (priority 1995, dated 1997).
Where two headings read alike, the source gives them in different places.

Legend:
Human keratinocytes = test: 3H-Thymidine incorporation (keratinocyte proliferation); type: cell-based; conditions: for activity at 0.25 µM / activity at 0.025 µM / activity at 0.0025 µM: Homo sapiens, Keratinocyte; for activity at 0.25 µM / mean Thymidine incorp./μg protein ± s.d: 2.5 × 10^-7 M; for activity at 0.0025 µM: 2.5 × 10^-9 M; for effect on keratinocyte proliferation, in words: concentrations as in the respective Example
Experimental: (§1) Human keratinocytes, isolated from neonatal foreskin by trypsin treatment were grown in Dulbecco Modification Eagle (DME) Hams F12 (1:1) medium/10% fetal calf serum in the presence of irradiated 3T3 mouse fibroblasts for establishing dividing keratinocyte colonies. Cells were grown under the above condition until their second passage and kept frozen for future use. […] On day 7, when the cells were 80-90% confluent, they were trypsinized and plated in the serum-free medium for the various experiments.
The incorporation of […] by cultured keratinocytes was used as an assay of keratinocyte proliferation. Thymidine is one of four deoxynucleosides which are the monomeric units of DNA, the universal library of genetic information in the animal kingdom. Prior to cell division of a somatic cell such as a keratinocyte, the complete genome of the cell undergoing cell division is replicated. This involves large scale DNA synthesis by the cell and enables both daughter cells to receive identical copies of the genetic material. When ^3 H-thymidine is included in the culture media of keratinocytes which are synthesizing DNA in preparation for cell division then the labelled nucleoside is incorporated into the newly synthesized DNA. The extent of incorporation of ^3 H-thymidine into a population of cells is proportional to the rate of DNA synthesis by this population of cells and therefore an indication of their cellular proliferation.
Keratinocytes (that were cultured as described above) were plated in 24 well plates at a density of 40,000 cells per well in 1 ml media. After incubation for four days or until the cells were 60-70% confluent, the media was changed. Test compounds were added (in triplicate) to the wells 24 hours after the media change, and four hours later 1μCi^3 H-Thymidine in 50 μl media was added per well. Cells were incubated for a further 24 hours. Media was removed from the cells, 10% ice cold trichloroacetic acid (TCA) added and plates were incubated on ice for 30 minutes. Cells were washed five times with 5% TCA and allowed to dissolve in 500 μl 0.1M NaOH for at least one hour (usually overnight). The preparations were neutralized with 0.1M HCl; 50 μl of the cell preparation was used to determine total protein content. Disintegrations per minute (DPM) from ^3 H labelling of DNA was determined by liquid scintillation counting of […] of the cell preparation. Thymidine incorporation results were expressed as DPM/μg protein.

[1] = test system: TGase I (keratinocyte transglutaminase level); test: Transglutaminase (TGase I) ELISA assay (keratinocyte differentiation); type: cell-based, human; conditions: for effect on keratinocyte TG1 levels / differentiation, in words: concentrations as in the respective Example
Experimental: as §1
During the process of terminal differentiation in the epidermis, a 15 nm thick layer of protein, known as the cornified envelope (CE) is formed on the inner surface of the cell periphery. The CE is composed of numerous distinct proteins which have been cross-linked together by the formation of N^ε -(γ-glutamyl) lysine isodipeptide bonds catalyzed by the action of at least two different transglutaminases (TGases) expressed in the epidermis. TGase I is expressed in abundance in the differentiated layers of the epidermis, especially the granular layer, but is absent in the undifferentiated basal epidermis. Thus TGase I is a useful marker of epidermal keratinocyte differentiation with high TGase I levels indicating a more differentiated state. An ELISA based TGase I assay, using a TGase I antibody, was used to assess the state of differentiation of the cultured keratinocytes in the examples that follow.
Keratinocytes (cultured as described above) were plated in 96 well plates at a density of 3,000 cells per well in 200 μl media. After incubation for four days the media was changed to media containing test compounds (six replicates per test). The cells were cultured for a further 72 hours after which time the media was aspirated and the plates stored at -70° C. Plates were removed from the freezer, and the cells washed with PBS. 100 μl sterile water was added and the cells were freeze fractured by freezing at -70° C. then thawing. The cells were incubated for one hour at room temperature (R/T) with PBS/3% BSA (wash buffer, bovine serum albumin), then rinsed with a fresh aliquot of wash buffer. Cells were incubated with 50 μl of primary antibodies monoclonal anti-human transglutaminase (IgG) obtained from Amersham (mouse) diluted 1:300 in wash buffer for one hour, 37° C. then rinsed two times with wash buffer. Cells were then incubated with 50 μl of secondary antibody (Feb fragment, peroxidase conjugated anti-mouse IgG obtaining from Amersham) diluted 1:200 in wash buffer for one hour at 37° C., then rinsed two times with wash buffer. Cells were incubated with substrate solution (4 mg o-phenylene diamine and 3.3 μl 30% H2 O2 in 10 ml 0.1M citrate buffer pH 5.0) for five minutes, R/T, in darkness (under aluminum foil). The reaction was stopped by the addition of 50 μl 4N H2 SO4. The absorbance of samples was read at 492 nm in the plate reader. Out of the six replicates, four were treated with both antibodies, two were treated only with the secondary antibody (i.e., to determine background binding of enzyme conjugated Ab). TGase levels were determined by subtracting background from the readings from each treatment and determining mean ±s.d. for the replicates exposed to both Ab.

[2] = 24 h, Table 7A, 24 h, n = 9, read-out: mean Thymidine incorp/μg protein ± s.d
[3] = 24 h, Table 7A, 24 h, n = 9, read-out: thymidine incorporation, % control

CC1=C(/C=C/C(C)=C/C=C/C(C)=C/CO)C(C)(C)CCC1 [ROH, retinol]
activity at 0.25 µM (Human keratinocytes; 24 h, Table 1A, first RA/ROH pair, 24 h, n = 3, read-out: thymidine incorporation, % control): 106% | activity at 0.25 µM (Human keratinocytes; 24 h, Table 1A, second RA/ROH pair, 24 h, n = 3, read-out: thymidine incorporation, % control): 97% | activity at 0.25 µM (Human keratinocytes; 24 h, Table 1A, third RA/ROH pair, 24 h, n = 3, read-out: thymidine incorporation, % control): 94% | activity at 0.025 µM (Human keratinocytes; 24 h, Table 2A, RA, ROH 2.5 × 10^-8 M, linoleoyl-DEA 10^-9 M, alone or combined, 24 h, n = 9, read-out: thymidine incorporation, % control): 102% | activity at 0.025 µM (Human keratinocytes; 24 h, Table 2A, RA, ROH 2.5 × 10^-8 M, linoleoyl-DEA 10^-9 M, alone or combined, 24 h, normalized to ethanol control, n = 9, read-out: mean Thymidine incorp./μg protein ± s.d): 102 ± 15.2% | activity at 0.025 µM (Human keratinocytes; 24 h, Table 4C, RA, retinol 2.5 × 10^-8 M, palmitoyl-MEA 10^-6 M, alone or combined, n = 3, read-out: thymidine incorporation, % control): 101% | activity at 0.025 µM (Human keratinocytes; 24 h, Table 4D, RA, ROH 2.5 × 10^-8 M, linoleoyl-MEA 10^-9 M, alone or combined, 24 h, n = 3, read-out: thymidine incorporation, % control): 106% | activity at 0.025 µM (Human keratinocytes; 24 h, Table 4D, RA, ROH 2.5 × 10^-8 M, linoleoyl-MEA 10^-9 M, alone or combined, 24 h, normalized to ethanol control, n = 3, read-out: mean Thymidine incorp./μg protein ± s.d): 106 ± 27% | activity at 0.25 µM (Human keratinocytes; [2]): 102 ± 16.5% | activity at 0.25 µM (Human keratinocytes; [3]): 102% | activity at 0.025 µM (Human keratinocytes; 24 h, Table 7A, 2.5 × 10^-8 M, 24 h, n = 9, read-out: mean Thymidine incorp/μg protein ± s.d): 101 ± 15.2% | activity at 0.025 µM (Human keratinocytes; 24 h, Table 7A, 2.5 × 10^-8 M, 24 h, n = 9, read-out: thymidine incorporation, % control): 101% | activity at 0.0025 µM (Human keratinocytes; [2]): 99.5 ± 12.3% | activity at 0.0025 µM (Human keratinocytes; [3]): 100% | activity at 0.025 µM (Human keratinocytes; Table 4C, RA, retinol 2.5 × 10^-8 M, palmitoyl-MEA 10^-6 M, alone or combined, control = 1.000, n = 3, read-out: mean Thymidine incorp./μg protein ± s.d): 101 ± 8.8% | mean Thymidine incorp./μg protein ± s.d (Human keratinocytes; Table 1A, first RA/ROH pair, 24 h, n = 3): 2218 ± 73 DPM/μg protein | mean Thymidine incorp./μg protein ± s.d (Human keratinocytes; Table 1A, second RA/ROH pair, 24 h, n = 3): 2034 ± 46 DPM/μg protein | mean Thymidine incorp./μg protein ± s.d (Human keratinocytes; Table 1A, third RA/ROH pair, 24 h, n = 3): 1977 ± 19 DPM/μg protein | effect on keratinocyte proliferation, in words (Human keratinocytes): minor, non-significant stimulatory effect on keratinocyte proliferation | effect on keratinocyte proliferation, in words (Human keratinocytes; listed as Retinol): completely ineffective at increasing keratinocyte proliferation | effect on keratinocyte proliferation, in words (Human keratinocytes; listed as retinol): Neither 10^-8 M palmitoyl-MEA nor 2.5×10^-8 M retinol had an effect on keratinocyte proliferation | activity at 0.25 µM ([1]; Homo sapiens, Keratinocyte, 72 h, Table 1B, 2.5 × 10^-7 M, 72 h, n = 3, read-out: Transglutaminase level, % control): 67% | activity at 0.025 µM ([1]; Homo sapiens, Keratinocyte, 72 h, Table 1B, 2.5 × 10^-8 M, 72 h, n = 3, read-out: Transglutaminase level, % control): 86% | activity at 0.0025 µM ([1]; Homo sapiens, Keratinocyte, 72 h, Table 1B, 2.5 × 10^-9 M, 72 h, n = 3, read-out: Transglutaminase level, % control): 97% | activity at 0.25 µM ([1]; Homo sapiens, Keratinocyte, 72 h, Table 2B, RA, ROH 2.5 × 10^-7 M, linoleoyl-DEA 10^-6 M, alone or combined, 72 h, n = 9, read-out: TGase (TG1) level, % control): 59% | activity at 0.25 µM ([1]; Homo sapiens, Keratinocyte, 72 h, Table 6A, RA, ROH 2.5 × 10^-7 M, formamide 10^-7 M, alone or combined, 72 h, n = 3, read-out: TGase (TG1) level, % control): 71% | activity at 0.25 µM ([1]; Homo sapiens, Keratinocyte, 72 h, Table 6B, RA, ROH 2.5 × 10^-7 M, acetamide 10^-7 M, alone or combined, 72 h, n = 3, read-out: TGase (TG1) level, % control): 65% | activity at 0.25 µM ([1]; Homo sapiens, Keratinocyte, 72 h, Table 6C, RA, ROH 2.5 × 10^-7 M, pentanoyl-DEA 10^-7 M, alone or combined, 72 h, n = 3, read-out: TGase (TG1) level, % control): 67% | activity at 0.25 µM ([1]; Homo sapiens, Keratinocyte, Table 4A, RA, retinol 2.5 × 10^-7 M, cocoyl-DEA 10^-7 M, alone or combined, n = 3, read-out: TGase (TG1) level, % control): 82% | activity at 0.025 µM ([1]; Homo sapiens, Keratinocyte, Table 4B, RA, retinol 2.5 × 10^-8 M, cocoyl-MEA 10^-8 M, alone or combined, n = 3, read-out: TGase (TG1) level, % control): 44% | activity at 0.25 µM ([1]; Homo sapiens, Keratinocyte, Table 5A, RA, retinol 2.5 × 10^-7 M, linoleic acid 10^-6 M, alone or combined, n = 3, read-out: TGase (TG1) level, % control): 39% | activity at 0.025 µM ([1]; Homo sapiens, Keratinocyte, Table 5B, RA, retinol 2.5 × 10^-8 M, methyl linoleate 10^-8 M, alone or combined, n = 3, read-out: TGase (TG1) level, % control): 69% | mean Transglutaminase ELISA level ± s.d ([1]; Table 1B, 2.5 × 10^-7 M, 72 h, n = 3): 0.290 ± 0.043 | mean Transglutaminase ELISA level ± s.d ([1]; Table 1B, 2.5 × 10^-8 M, 72 h, n = 3): 0.371 ± 0.054 | mean Transglutaminase ELISA level ± s.d ([1]; Table 1B, 2.5 × 10^-9 M, 72 h, n = 3): 0.416 ± 0.035 | mean TGase ± s.d ([1]; Table 2B, RA, ROH 2.5 × 10^-7 M, linoleoyl-DEA 10^-6 M, alone or combined, 72 h, normalized to ethanol control, n = 9): 0.594 ± 0.542 | mean TGase ± s.d ([1]; Table 4A, RA, retinol 2.5 × 10^-7 M, cocoyl-DEA 10^-7 M, alone or combined, n = 3): 0.145 ± 0.070 | mean TGase ± s.d ([1]; Table 4B, RA, retinol 2.5 × 10^-8 M, cocoyl-MEA 10^-8 M, alone or combined, n = 3): 0.054 ± 0.013 | mean TGase ± s.d ([1]; Table 5A, RA, retinol 2.5 × 10^-7 M, linoleic acid 10^-6 M, alone or combined, n = 3): 0.042 ± 0.112 | mean TGase ± s.d ([1]; Table 5B, RA, retinol 2.5 × 10^-8 M, methyl linoleate 10^-8 M, alone or combined, n = 3): 0.199 ± 0.093 | mean TGase level ± s.d ([1]; Table 6A (Effect on Keratinocyte TGase), RA, ROH 2.5 × 10^-7 M, formamide 10^-7 M, alone or combined, 72 h, n = 3): 0.351 ± 0.046 | mean TGase level ± s.d ([1]; Table 6B (Effect on Keratinocyte TGase), RA, ROH 2.5 × 10^-7 M, acetamide 10^-7 M, alone or combined, 72 h, n = 3): 0.317 ± 0.043 | mean TGase level ± s.d ([1]; Table 6C (Effect on Keratinocyte TGase), RA, ROH 2.5 × 10^-7 M, pentanoyl-DEA 10^-7 M, alone or combined, 72 h, n = 3): 0.290 ± 0.043 | effect on keratinocyte TG1 levels / differentiation, in words ([1]; listed as Retinol): significantly less effective than retinoic acid at inhibiting keratinocyte differentiation | effect on keratinocyte TG1 levels / differentiation, in words ([1]; listed as retinol): decrease in transglutaminase level was dose dependent
